Data as given in patent US5580552A, “7-glycosyloxybenzopyran derivative and antiallergic agent containing the derivative as active ingredient” (priority 1994, dated 1996).

What was measured:
[1] = test system: homologous passive cutaneous anaphylaxis (PCA) reaction; test: Effect on homologous passive cutaneous anaphylaxis (PCA) reaction in rats; type: in vivo, rats (male wistar); details: 50 mg/kg oral, 1 hour before challenge (TABLE 2); for inhibition in vivo at 50 mg/kg: Rattus norvegicus, po, 0.5 h
Protocol: Effect on homologous passive cutaneous anaphylaxis (PCA) reaction in rats.
This experimental animal model is caused by immediate type allergic reaction namely, antigen-antibody reaction. In the following, the method of this pharmacological test will be explained.
Method: Male wistar rats (9 weeks old) were intradermally administered 0.05 ml of anti-serum against dinitrophenylated ascaris (DNP-As) into two sites on the shaved dorsal skin. 48 hours later, 7-glycosyloxybenzopyran derivatives (test compounds) suspended in 0.5% sodium carboxymethylcellulose (CMCNa) were given orally at a dose of 50 mg/kg to the animals. One hour after administration of Test compounds, the animals were induced anaphylaxis by injection of saline (1 ml) dissolving 5 mg of Evans Blue and 1 mg of Trinitrophenylated ascaris (TNP-As) into the tail vein of the animals. 30 minutes after induction of anaphylaxis, animals were anesthetized by ether and killed by bleeding, and were flayed dorsal skin. The determination of extravasated dye was performed according to the method of Katayama et al. (Microbiol. Immunol., Vol.22, P 89-101, 1978). As vehicle control group, only 0.5% CMCNa solution was administered orally, and as positive control group, Tranilast suspended in 0.5% CMCNa was administered orally at a dose of 100 mg/kg to the animals with the same method as the test compounds groups. Each experimental group consisted of 5 rats. [formula]

[2] = test system: contact dermatitis induced by picryl chloride; test: Effect on contact dermatitis induced by picryl chloride in mice; type: in vivo; details: 50 mg/kg oral, 1 hour before and 16 hours after challenge, 24 hours after challenge; for inhibition in vivo at 50 mg/kg: Mus musculus, po, 24 h, read-out: Inhibition (%) against the increase of ear thickness
Protocol: Effect on contact dermatitis induced by picryl chloride in mice
The delayed type hypersensitization is inhibited by steroid drugs,but can not be effected by known anti-allergic agents. In the following, the method of the pharmacological test will be explained.
Method: Mice, shaved their abdominal skin on previous day, were immunized by applying 0.1 ml of acetone containing 7 mg of picryl chloride to the skin of the abdomen. 7 days after immunization, the thickness of the ear was measured with a dial thickness gauge, then mice were challenged by painting 5 μl of 1% picryl chloride olive oil solution to each side skin of left ear. 24 hours after challenge, the thickness of the left ear was measured again and the increase (%) of thickness was calculated according to equation 2. The compounds of the present invention (test compounds) suspended in 0.5% CMCNa were forcibly administered orally at a dose of 50 mg/kg at 1 hour before and 16 hours after challenge. As vehicle control group, only 0.5% CMCNa solution were administered orally, and as positive control group, Prednisolone, steroid hormone, and Tranilast were administered orally at the doses of 10 mg/kg and 100 mg/kg, respectively.
Increase (%)=(A-B)/B×100 (Equation 2)
A: thickness of the ear at 24 hours after challenge
B: thickness of the ear before challenge
Inhibition (%)=(C-D)/C×100 (equation 3)
C: The increase (%) in vehicle control group
D: The increase (%) in test compounds group or positive control group

[3] = test system: experimental asthma model (airway resistance); test: Effect on experimental asthma model in guinea pigs (airway resistance); type: in vivo, guinea pigs (male hartley); details: 50 mg/kg oral (TABLE 6); for inhibition in vivo at 50 mg/kg: Cavia porcellus, po, 0.5 h
Protocol: Effect on experimental asthma model in guinea pigs
The asthma is typical allergic disease and we carried out this pharmacological test by well known experimental asthma model in guinea pigs in order to comfirm that the compounds of the present invention suppress the asthma. In the following, the method of the pharmacological test will be explained.
Method: Male hartley guinea pigs were immunized by intraperitoneal injection of saline (1ml) containing 5 mg of ovalbumine (OVA) three times at interval of one week. 2 weeks after final immunization, the animals were challenged by inhalation of 1% OVA-saline solution for 1 minute and then the airway resistance of the animals were measured for 30 minutes with PULMOS-1 (Medical Interface Project Station Inc.) after the inhalation. The compounds of the present invention (test compounds) suspended in 0.5% CMCNa were given orally at a dose of 50 mg/kg. As positive control group, Disodium Cromoglicate (DSCG), well known anti-allergic agent, in saline were injected at a dose of 20 mg/kg into the vein of the animals. As vehicle control group, only 0.5% CMCNa solution were given orally. The inhibition (%) of the airway resistance in vehicle control group was calculated according to equation 5 and the result was shown in TABLE 6. Each experimental group consisted of 5 guinea pigs. [formula]
A: Maximum airway resistance in vehicle control group
B: Maximum airway resistance in test compounds group or positive control group

Row | Structure (SMILES) | Inhibition (%) of PCA reaction [1] [%] | Inhibition (%) against the increase of ear thickness [2] [%] | Inhibition (%) of the airway resistance [3] [%] | inhibition in vivo at 50 mg/kg [1] [%] | inhibition in vivo at 50 mg/kg [2] [%] | inhibition in vivo at 50 mg/kg [3] [%]
1 | CC(C)=CCC/C(C)=C/COc1c(O)c(=O)oc2cc(O[C@@H]3O[C@H](CO)[C@@H](O)[C@H](O)[C@H]3O)ccc12 [compound 160] | 43.9 | 46.7 | 58.9 |  |  | 
2 | CC(C)=CCC/C(C)=C/COc1c(O)c(=O)oc2cc(O[C@H]3O[C@H](CO)[C@@H](O)[C@H](O)[C@@H]3O)ccc12 [compound 139] |  |  |  | 41.8 | 42.1 | 47.2
3 | O=c1oc2cc(O[C@@H]3O[C@H](CO)[C@@H](O)[C@H](O)[C@H]3O)ccc2c(O)c1O [compound 151] | 45.4 | 46.5 | 49.7 |  |  | 
4 | CC1CCC(Oc2c(O)c3ccc(O[C@H]4O[C@H](CO)[C@@H](O)[C@H](O)[C@@H]4O)cc3oc2=O)CC1 (stereo partly drawn) [compound 68] |  |  |  | 49.5 | 47.3 | 63.5
5 | CCCCCCOc1c(O)c2ccc(O[C@@H]3O[C@H](CO)[C@@H](O)[C@H](O)[C@H]3O)cc2oc1=O [compound 38] |  |  |  | 59.3 | 63.7 | 75.5
6 | CCCCCCCCOc1c(O)c(=O)oc2cc(O[C@H]3O[C@H](CO)[C@@H](O)[C@H](O)[C@@H]3O)ccc12 [compound 132] |  |  |  | 42.9 | 43.2 | 50.1
7 | C=COc1c(O)c(=O)oc2cc(O[C@H]3O[C@H](CO)[C@@H](O)[C@H](O)[C@@H]3O)ccc12 [compound 137] |  |  |  | 41.7 | 43.5 | 45.4
8 | CCCCOc1c(O)c(=O)oc2cc(O[C@@H]3O[C@H](CO)[C@@H](O)[C@H](O)[C@H]3O)ccc12 [compound 110] |  |  |  | 41.4 | 42.9 | 56.5
9 | CC(=O)Oc1c(OC(C)C)c2ccc(O[C@@H]3O[C@H](COCc4ccccc4)[C@@H](OCc4ccccc4)[C@H](OCc4ccccc4)[C@H]3OCc3ccccc3)cc2oc1=O [compound 145] |  |  |  | 40.2 | 42.1 | 41.9
10 | COc1c(O)c2ccc(O[C@@H]3O[C@H](CO)[C@H](O)[C@H](O)[C@H]3O)cc2oc1=O [compound 9, 3-methoxy-4-hydroxy-7-(β-D-galactopyranosyloxy)-2H-1-benzopyran-2-one] |  |  |  | 54.5 | 52.1 | 60.3
11 | CCCCCCCCOc1c(OC(C)=O)c(=O)oc2cc(O[C@@H]3O[C@H](COC(C)=O)[C@@H](OC(C)=O)[C@H](OC(C)=O)[C@H]3OC(C)=O)ccc12 [compound 16, 3-acetoxy-4-octyloxy-7-(tetra-O-acetyl-β-D-glucopyranosyloxy)-2H-1-benzopyran-2-one] |  |  |  | 42.3 | 43.5 | 40.2
12 | CCC=CCCOc1c(O)c2ccc(O[C@@H]3O[C@H](CO)[C@@H](O)[C@H](O)[C@H]3O)cc2oc1=O [compound 45] |  |  |  | 55.2 | 54.2 | 62.3
13 | CCCCCCCCOc1c(O)c2ccc(O[C@H]3O[C@H](CO)[C@@H](O)[C@H](O)[C@@H]3O)cc2oc1=O [compound 64] |  |  |  | 54.9 | 52.6 | 57.2
14 | CCCCCCCCCCCCOc1c(O)c(=O)oc2cc(O[C@@H]3O[C@H](CO)[C@@H](O)[C@H](O)[C@H]3O)ccc12 [compound 155] | 42.9 | 40.9 | 57.6 |  |  | 
15 | CCCCCCCCOc1c(O)c(=O)oc2cc(O[C@@H]3O[C@H](CO)[C@H](O)[C@H](O)[C@H]3O)ccc12 [compound 23, 3-hydroxy-4-octyloxy-7-(β-D-galactopyranosyloxy)-2H-1-benzopyran-2-one] |  |  |  | 44.7 | 49.3 | 61.5
16 | CCCCCCCCCCCCOc1c(O)c2ccc(O[C@@H]3O[C@H](CO)[C@H](O)[C@H](O)[C@H]3O)cc2oc1=O [compound 90] |  |  |  | 54.3 | 60.1 | 72.1
17 | C=COc1c(O)c2ccc(O[C@@H]3O[C@H](CO)[C@@H](O)[C@H](O)[C@H]3O)cc2oc1=O [compound 44] |  |  |  | 54.5 | 56.3 | 65.1
18 | CCCCCCCCCCOc1c(O)c(=O)oc2cc(O[C@@H]3O[C@H](CO)[C@@H](O)[C@H](O)[C@H]3O)ccc12 [compound 154] | 43.2 | 41.6 | 59.2 |  |  | 
19 | CCCCCCCCCCCCOc1c(O)c(=O)oc2cc(O[C@@H]3O[C@H](CO)[C@@H](O)[C@H](O)[C@H]3O)ccc12 [compound 112] |  |  |  | 44.5 | 43.3 | 57.2
20 | CCCCCCCCCCOc1c(O)c2ccc(O[C@@H]3O[C@H](CO)[C@@H](O)[C@H](O)[C@H]3O)cc2oc1=O [compound 40] |  |  |  | 57.3 | 62.1 | 73.1
21 | CCCCCCCCCCCCOc1c(O)c(=O)oc2cc(O[C@H]3O[C@H](CO)[C@@H](O)[C@H](O)[C@@H]3O)ccc12 [compound 134] |  |  |  | 41.5 | 43.7 | 45.9
22 | O=c1oc2cc(O[C@H]3O[C@H](CO)[C@@H](O)[C@H](O)[C@@H]3O)ccc2c(O)c1O [compound 61] |  |  |  | 40.2 | 43.1 | 45.2
23 | CCC=CCCOc1c(O)c2ccc(O[C@@H]3O[C@H](CO)[C@H](O)[C@H](O)[C@H]3O)cc2oc1=O [compound 94] |  |  |  | 53.7 | 51.2 | 73.2
24 | COc1c(O)c(=O)oc2cc(O[C@@H]3O[C@H](CO)[C@@H](O)[C@H](O)[C@H]3O)ccc12 [compound 109] |  |  |  | 42.1 | 43.8 | 53.1
25 | CCCCOc1c(O)c(=O)oc2cc(O[C@@H]3O[C@H](CO)[C@H](O)[C@H](O)[C@H]3O)ccc12 [compound 18, 3-hydroxy-4-butoxy-7-(β-D-galactopyranosyloxy)-2H-1-benzopyran-2-one] |  |  |  | 42.5 | 40.2 | 52.3
26 | CC(C)=CCC/C(C)=C/COc1c(O)c2ccc(O[C@@H]3O[C@H](CO)[C@@H](O)[C@H](O)[C@H]3O)cc2oc1=O [compound 46] |  |  |  | 54.3 | 57.6 | 63.4
27 | CC(C)=CCC/C(C)=C/COc1c(O)c2ccc(O[C@@H]3O[C@H](CO)[C@H](O)[C@H](O)[C@H]3O)cc2oc1=O [compound 95] |  |  |  | 54.2 | 55.8 | 63.2
